Structures are written as SMILES.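 Where inhibition never reached the appropriate level, the endpoint shown equals the highest concentration tested. Otherwise, values were interpolated linearly from a five-concentration, 48-hour dose response in 96-well plates. GI50: concentration for 50% inhibition of growth.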 Calls of active or inactive are those of the source. Rule as the data show it: active = GI50 up to about 1.1 µM and inactive = higher.

What all share (experiment): growth of human tumour cells (NCI), 48 h
The subject of experiment [1] is Malme-3M.
Experiment [2] relates to HCC 2998.
For experiment [3], the system named is 786-0.
For experiment [4], the system named is SNB-19.
The test system of experiment [5] is SK-MEL-5.
The test system of experiment [6] is U-251.
Experiment [7] relates to KM12.
Experiment [8] relates to HOP-92.
In experiment [9] the test system is NCI-H226.
The test system of experiment [10] is CAKI-1.
The subject of experiment [11] is RPMI-8226.
The test system of experiment [12] is CCRF-CEM.
Experiment [13] deals with MOLT-4.
The test system of experiment [14] is A549.
In experiment [15] the test system is Hs-578T.
For experiment [16], the system named is MDA-MB-435.
Experiment [17] concerns NCI/ADR-RES.
In experiment [18] the test system is MDA-N.
In experiment [19] the test system is MDA-MB-231.

Take `CC(=O)NC1=C(C)C(=O)c2c(nc3n2CCC3O)C1=O` (stereo not drawn): the GI50 in [1] was 19.1 µM (inactive); in experiment [2], 54 µM (inactive); in experiment [3], 43.4 µM (inactive); in [4] it was > 100 µM (inactive); in experiment [5], 51.9 µM (inactive); in experiment [6], 33.1 µM (inactive). The GI50 in [7] was > 100 µM (inactive); in experiment [8], 18.6 µM (inactive); in experiment [9] it was 27.4 µM (inactive); in experiment [10], > 100 µM (inactive); in experiment [11] it was 18.2 µM (inactive); in [12] it was 4.24 µM (inactive). For the same compound, the GI50 in experiment [13] is 3.44 µM (inactive); in experiment [14], > 64 µM (inactive).
Turning to `COc1ccc(/C=C/c2ccnc3ccccc23)cc1`, the GI50 in [1] is 16.7 µM (inactive); in [2], 20.1 µM (inactive); in experiment [3] it was 16.8 µM (inactive); in experiment [4] it was 19.3 µM (inactive); in [15], 22.6 µM (inactive); in experiment [5], 14.3 µM (inactive). The GI50 in experiment [6] is 17.1 µM (inactive); in experiment [7], 16.5 µM (inactive); in experiment [8] it was 4.66 µM (inactive); in [9] it was 21.9 µM (inactive); in experiment [10], 17.7 µM (inactive); in [16], 17.1 µM (inactive). Also, the GI50 in experiment [11] was 10.7 µM (inactive); in experiment [12], 10.5 µM (inactive); in [17] it was 14.2 µM (inactive); in experiment [13] it was 12.2 µM (inactive); in experiment [18], 16.6 µM (inactive); in experiment [14], 15.4 µM (inactive).
As to `O=[N+]([O-])c1cc(C2SCc3nc4ccccc4n32)ccc1Cl` (stereo not drawn), the GI50 in [1] was 34.8 µM (inactive); in experiment [2], 18.4 µM (inactive); in [3], 34.3 µM (inactive); in [4] it was 45.9 µM (inactive); in experiment [5], 15 µM (inactive); in experiment [6], 27.2 µM (inactive). For the same compound, the GI50 in experiment [7] was 16.7 µM (inactive); in experiment [8], 25.1 µM (inactive); in experiment [9] it was 25.1 µM (inactive); in [10], 33.3 µM (inactive); in experiment [11], 20.3 µM (inactive); in experiment [12], 24.9 µM (inactive). For the same compound, the GI50 in experiment [13] is 31.3 µM (inactive); in experiment [14] it was 33.1 µM (inactive).
For the compound `CO/C(=N\N=C\c1ccc(Cl)c(Cl)c1)c1ccncc1`, the GI50 in [1], in experiment [2], in [3], in [4], in experiment [5] and in experiment [6] was > 10 µM (inactive) throughout. Besides, the GI50 was > 10 µM (inactive) in experiment [7]; 4.26 µM (inactive) in experiment [8]; > 10 µM (inactive) in experiment [9]; > 10 µM (inactive) in [10]; > 10 µM (inactive) in experiment [11]; > 10 µM (inactive) in experiment [12]. Moreover, the GI50 in experiment [17], in [13], in experiment [18] and in experiment [14] was > 10 µM (inactive) throughout.
On to `O=c1[nH]nc(N/N=C\c2ccc(Cl)cc2)c2ccccc12`, for which the GI50 in experiment [1] was 22 µM (inactive); in [3] it was 14.8 µM (inactive); in experiment [4], 20.4 µM (inactive); in [15], 37 µM (inactive); in experiment [5] it was 16.1 µM (inactive); in [6], 20.5 µM (inactive). Besides, the GI50 is 21 µM (inactive) in [7]; 16.9 µM (inactive) in experiment [8]; 22.3 µM (inactive) in [19]; 27.6 µM (inactive) in [9]; 18.3 µM (inactive) in experiment [10]; 17.8 µM (inactive) in experiment [16]. Moreover, the GI50 in [11] was 25.7 µM (inactive); in experiment [12] it was 44 µM (inactive); in experiment [17], 19.6 µM (inactive); in experiment [13], 60.3 µM (inactive); in experiment [14] it was 20.1 µM (inactive).
`[O-][S+]1c2ccccc2SCSc2ccccc21`: the GI50 in experiment [1] was > 100 µM (inactive); in experiment [2], > 100 µM (inactive); in experiment [3], > 100 µM (inactive); in experiment [4], > 100 µM (inactive); in experiment [5], 76.6 µM (inactive); in experiment [6], > 100 µM (inactive). For the same compound, the GI50 is > 100 µM (inactive) in experiment [7]; 14.8 µM (inactive) in [8]; > 100 µM (inactive) in [19]; > 100 µM (inactive) in experiment [10]; 18.2 µM (inactive) in experiment [11]; > 100 µM (inactive) in experiment [17]. Besides, the values for the GI50 in experiment [13], in experiment [18] and in experiment [14] were 66.5 µM (inactive), > 100 µM (inactive) and > 100 µM (inactive), respectively.
On to `CC(C(O)c1ccccc1)[N+](=O)[O-]` (stereo not drawn), for which the GI50 in [1] was 21.7 µM (inactive); in experiment [2], 10.9 µM (inactive); in [3] it was 6.93 µM (inactive); in experiment [4] it was 24.5 µM (inactive); in experiment [15], 28.2 µM (inactive); in experiment [5], 17.9 µM (inactive). In addition, the GI50 was 16.6 µM (inactive) in experiment [6]; 19.4 µM (inactive) in [7]; 26.5 µM (inactive) in [19]; 24.4 µM (inactive) in experiment [9]; 14.2 µM (inactive) in experiment [10]; 18.5 µM (inactive) in experiment [16]. Further, the GI50 was 2.9 µM (inactive) in experiment [11]; 10 µM (inactive) in experiment [12]; 28.1 µM (inactive) in experiment [17]; 1.65 µM (inactive) in experiment [13]; 17.7 µM (inactive) in experiment [14].
Regarding `CN(CC(=O)O)c1ncc2c(n1)-c1ccccc1OC2`, the GI50 in [1], in experiment [3], in [4], in experiment [15], in experiment [5] and in experiment [6] was > 100 µM (inactive) in each case. For the same compound, the GI50 in experiment [7], in experiment [8], in experiment [19], in experiment [10], in experiment [16] and in experiment [11] was > 100 µM (inactive) throughout. Also, the GI50 in [12], in [17], in experiment [13], in experiment [18] and in [14] was > 100 µM (inactive) throughout.
With `COc1cc2c(c(OC(C)=O)c1OC(C)=O)-c1ccc(SC)c(=O)cc1C(NC(C)=O)CC2` (stereo not drawn), the GI50 in experiment [1] was 1.34 µM (inactive); in experiment [2], 2.51 µM (inactive); in experiment [3], 3.87 µM (inactive); in [4], 2.65 µM (inactive); in experiment [5], 0.631 µM (active); in experiment [6] it was 2.49 µM (inactive). Moreover, the GI50 was 0.544 µM (active) in experiment [7]; 0.741 µM (active) in [8]; 6.87 µM (inactive) in [9]; 11.2 µM (inactive) in [10]; 1.36 µM (inactive) in experiment [11]; 0.631 µM (active) in [12]. Also, the results for the GI50 in experiment [13] and in experiment [14] were 1.52 µM (inactive) and 3.73 µM (inactive), respectively.
`COC(=O)[C@@H]1CN(C(=O)Cc2ccccc2)C(=O)N1`: the GI50 in experiment [1], in experiment [3], in experiment [4], in experiment [15], in [5] and in [6] was > 100 µM (inactive) each time. The GI50 in experiment [7], in experiment [8], in [19], in [9], in [10] and in experiment [16] was > 100 µM (inactive) in each case. In addition, the GI50 in experiment [11], in experiment [12], in experiment [17], in experiment [13] and in [14] was > 100 µM (inactive) in each case.
On to `Nc1ccccc1SC(/C=C/NNC1=NN=C(c2ccccc2)C(c2ccccc2)N1)c1ccccc1` (stereo not drawn), for which the GI50 is 15.9 µM (inactive) in experiment [1]; 16.5 µM (inactive) in experiment [2]; 12.2 µM (inactive) in experiment [3]; 18.7 µM (inactive) in experiment [4]; 13.4 µM (inactive) in experiment [5]; 15 µM (inactive) in experiment [6]. Further, the GI50 in experiment [7] was 12.7 µM (inactive); in experiment [8], 8.57 µM (inactive); in [9] it was 13.7 µM (inactive); in experiment [10] it was 10.6 µM (inactive); in [11], 2.96 µM (inactive); in experiment [12], 2.59 µM (inactive). The GI50 was 3.64 µM (inactive) in experiment [13] and 15.2 µM (inactive) in experiment [14].
With `COc1ccc(CNc2nc(NCc3ccc(OC)cc3)nc(NC3CCCC3)n2)cc1`, the GI50 in [1] was 8.53 µM (inactive); in experiment [3] it was 4.05 µM (inactive); in experiment [4], 6.28 µM (inactive); in [15], 3.07 µM (inactive); in [5], 3.76 µM (inactive); in experiment [6], 4.5 µM (inactive). The GI50 in [7] is 0.28 µM (active); in experiment [19], 3.54 µM (inactive); in experiment [9] it was 5.07 µM (inactive); in [10] it was 4.02 µM (inactive); in experiment [16], 1.48 µM (inactive); in [11], 2.24 µM (inactive). Besides, the GI50 in [12] is 2.24 µM (inactive); in experiment [17], 2.7 µM (inactive); in experiment [13], 4.59 µM (inactive); in [14] it was 5.26 µM (inactive).
Take `CC1(C)CCC[C@@]2(C)C1C[C@H](O)[C@@]1(C)O[C@@](C)([C@H](O)CO)CCC21` (stereo partly drawn): the GI50 in experiment [1] was 40.6 µM (inactive); in [2], 60.8 µM (inactive); in [3] it was 44 µM (inactive); in experiment [4] it was 49.8 µM (inactive); in [5], 20.9 µM (inactive); in [6], 37.2 µM (inactive). Further, the GI50 in experiment [7] was 37.2 µM (inactive); in experiment [8], 23.7 µM (inactive); in experiment [9] it was 28.7 µM (inactive); in experiment [10], 35.8 µM (inactive); in [11] it was 20 µM (inactive); in experiment [12], 29.7 µM (inactive). The GI50 is 21.2 µM (inactive) in [13] and 36.2 µM (inactive) in [14].

Values taken from ChEMBL document CHEMBL1201862, “PubChem BioAssay data set” (2004).
